Columns and labels:
[1] = Comparative experiment of manufacturing method: solubility of cilostazol in HP-β-CD, dissolving method (1) vs (2); format: physicochemical
Method: To cilostazol suspension (0.5%, suspended in physiological saline) was added HP-β-CD powder so that the final concentration of the HP-β-CD should be 5-20%, and the mixture was completely dissolved (the procedure is termed as “dissolving method (1)”). On the contrary, to HP-β-CD solution (5-20%, dissolved in physiological saline) was added cilostazol powder (final concentration: 0.5%), and the mixture was completely dissolved (the procedure is termed as “dissolving method (2)”). Both the above solutions were stirred at 25° C. for 24 hours under the shade, then filtrated with membrane filter (pore size: 0.2 μm), and compared about the solubility of the solutions. […] Actually, it needed 10 minutes' stirring for the solution derived from dissolving method (1) to reach the state of the dissolution curve shown in FIG. 1. […] (The above concentrations are shown as weight/volume %.)

[2] = Dissolution experiment of cilostazol nano (nano-CLZ) in HP-β-CD, dissolving method (1) vs (2); format: physicochemical
Method: CLZ and an excipient were mixed in a ratio of about 80%:20% to give a nano-CLZ powder. To a nano-CLZ suspension (0.5% CLZ suspension: which was prepared by suspending 120 mg of the nano-CLZ powder in 20 mL of purified water), HP-β-CD powder was added and the mixture was dissolved so that the final concentration of HP-β-CD should be 5-20% (dissolving method (1)); while 120 mg of the nano-CLZ powder was added to a HP-β-CD solution (which was prepared by dissolving HP-β-CD in purified water so that the final concentration of HP-β-CD should be 5-20%), and the mixture was dissolved (the final concentration of CLZ is 0.5%) (dissolving method (2)). Both the above solutions were stirred at 25° C. for 24 hours under the shade, then filtrated with membrane filter (pore size: 0.2 μm), and compared about the solubility of the solutions.
Actually, it needed 30 minutes' stirring for the solution derived from dissolving method (1) to reach the state of the dissolution curve shown in FIG. 2. […] (The above concentrations are shown as weight/volume %.)

With `O=C1CCc2cc(OCCCCc3nnnn3C3CCCCC3)ccc2N1` [cilostazol, 6-[4-(1-cyclohexyl-1H-tetrazol-5-yl)butoxy]-3,4-dihydrocarbostyril] the “solubility of cilostazol, dissolving method (1) compared with dissolving method (2)” value ([1]; 0.5% cilostazol, 5-20% HP-β-CD in physiological saline, stirred 25° C. 24 hours under the shade, 0.2 μm filtrate, FIG. 1) was “tended to increase more”, the “stirring needed to reach the state of the dissolution curve” value ([1]; dissolving method (1): HP-β-CD powder added to cilostazol suspension, FIG. 1) was 10 min and the “solubility after 10 minutes stirring relative to the solubility shown in FIG. 1” value ([1]; dissolving method (2): cilostazol powder added to HP-β-CD solution) was “one fifth or less”. The “solubility of cilostazol, dissolving method (1) compared with dissolving method (2)” value ([2]; nano-CLZ powder, 0.5% CLZ, 5-20% HP-β-CD in purified water, stirred 25° C. 24 hours under the shade, 0.2 μm filtrate, FIG. 2) was “tended to increase more”, the “stirring needed to reach the state of the dissolution curve” value ([2]; nano-CLZ, dissolving method (1), FIG. 2) was 30 min and the “solubility after 30 minutes stirring relative to the solubility shown in FIG. 2” value ([2]; nano-CLZ, dissolving method (2)) was “half or less”.
